Reference: the supplement of paper PMC12513837
± gives the standard deviation of the averaged measurements.

Compound: CC(=O)N1CCc2c(c(N3CCCc4cc(-c5cnn(C)c5)c(C(F)F)cc43)nn2C2CCC(CN3CCN(c4ccc5c(c4)C(=O)N(C4CCC(=O)NC4=O)C5=O)CC3)CC2)C1 [CBPD-409]
Assay: AUC of viability dose-response curve (relative to vehicle, 8 doses up to 10 µM) (fraction); higher = less sensitive (more viable); extreme values may be limits of the assay
Method: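 PRISM multiplexed pooled barcoded cell line viability screen at the Broad Institute, 887 cancer cell lines treated with CBPD-409 (p300/CBP PROTAC degrader) at 8 concentrations in threefold dilution, top dose 10 µM. The read-out is the area under the dose-response curve of relative viability versus vehicle (n=3). AUC < 0.3 is called strongly sensitive and AUC > 0.8 resistant.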

Test System	AUC of viability dose-response curve
BDCM_HAEMATOPOIETIC_AND_LYMPHOID_TISSUE	0.431
NCIH522_LUNG	0.942
NCIH1563_LUNG	0.445
FTC238_THYROID	0.734
TM31_CENTRAL_NERVOUS_SYSTEM	0.826
769P_KIDNEY	0.395
MOLM14_HAEMATOPOIETIC_AND_LYMPHOID_TISSUE	0.212
SNU423_LIVER	0.751
SKLU1_LUNG	0.753
RT4_URINARY_TRACT	0.887
T98G_CENTRAL_NERVOUS_SYSTEM	0.8
SNU245_BILIARY_TRACT	0.719
U118MG_CENTRAL_NERVOUS_SYSTEM	0.983
KOSC2CL343_UPPER_AERODIGESTIVE_TRACT	0.875
KYSE180_OESOPHAGUS	0.929
KP2_PANCREAS	0.512
KYSE510_OESOPHAGUS	0.928
MDAMB436_BREAST	0.505
PATU8988S_PANCREAS	0.253
ICC15_BILIARY_TRACT	0.265
BHT101_THYROID	0.581
HCC1806_BREAST	1
RD_SOFT_TISSUE	0.657 ± 0.29
SNU1196_BILIARY_TRACT	1

Test System	AUC of viability dose-response curve
JHOM1_OVARY	0.99
LU99_LUNG	0.831
RH30_SOFT_TISSUE	0.841 ± 0.22
OVKATE_OVARY	1
UPCISCC116_UPPER_AERODIGESTIVE_TRACT	0.827
HCC4006_LUNG	1
MCC26_SKIN	0.98
PATU8988T_PANCREAS	0.499
ICC10_BILIARY_TRACT	0.827
LS411N_LARGE_INTESTINE	0.988
SCC9_UPPER_AERODIGESTIVE_TRACT	0.687
KARPAS422_HAEMATOPOIETIC_AND_LYMPHOID_TISSUE	0.752
TANOUE_HAEMATOPOIETIC_AND_LYMPHOID_TISSUE	1
SNU840_OVARY	1
YAPC_PANCREAS	1
TM87_SOFT_TISSUE	0.367 ± 0.19
UMUC10_URINARY_TRACT	0.511
JAR_PLACENTA	0.238
HEP3B217_LIVER	0.4
JHOC5_OVARY	1
COLO800_SKIN	0.67
CAL29_URINARY_TRACT	0.7
NCIH1573_LUNG	0.699
OE21_OESOPHAGUS	1

Test System	AUC of viability dose-response curve
TTC1240_SOFT_TISSUE	0.187
NCIH1650_LUNG	0.583
ICC137_BILIARY_TRACT	0.501
BV173_HAEMATOPOIETIC_AND_LYMPHOID_TISSUE	0.271
BT12_SOFT_TISSUE	0.706
SNU489_CENTRAL_NERVOUS_SYSTEM	1
HS294T_SKIN	0.929
NCIH747_LARGE_INTESTINE	1
TTC709_SOFT_TISSUE	0.23
GB1_CENTRAL_NERVOUS_SYSTEM	0.595
COLO680N_OESOPHAGUS	0.653
SNU1_STOMACH	1
UW228_CENTRAL_NERVOUS_SYSTEM	1
NCIH727_LUNG	0.875
22RV1_PROSTATE	0.189
SNUC2A_LARGE_INTESTINE	0.514
TE11_OESOPHAGUS	0.986
SNU213_PANCREAS	0.933
EOL1_HAEMATOPOIETIC_AND_LYMPHOID_TISSUE	0.207
NCIH2171_LUNG	1
BC3C_URINARY_TRACT	1
MHHES1_BONE	0.842 ± 0.2
NCIH1299_LUNG	0.79
ICC4_BILIARY_TRACT	0.706

Test System	AUC of viability dose-response curve
JR_SOFT_TISSUE	0.34
SNU1077_ENDOMETRIUM	0.846
NCIH2228_LUNG	0.91
JJN3_HAEMATOPOIETIC_AND_LYMPHOID_TISSUE	0.896
SNU1079_BILIARY_TRACT	0.648
SCC3_HAEMATOPOIETIC_AND_LYMPHOID_TISSUE	1
MEL285_UVEA	0.639
647V_URINARY_TRACT	0.394
T84_LARGE_INTESTINE	1
BT474_BREAST	0.643
HEC59_ENDOMETRIUM	0.677
HS683_CENTRAL_NERVOUS_SYSTEM	1
SNU1041_UPPER_AERODIGESTIVE_TRACT	0.703
HCC1954_BREAST	1
JHOS2_OVARY	0.472
A3KAW_HAEMATOPOIETIC_AND_LYMPHOID_TISSUE	0.325
LAMA84_HAEMATOPOIETIC_AND_LYMPHOID_TISSUE	0.832
SCC25_UPPER_AERODIGESTIVE_TRACT	1
TT2609C02_THYROID	0.775
CHLA06ATRT_SOFT_TISSUE	1
SKGT2_STOMACH	0.887
MCC13_SKIN	1
HS766T_PANCREAS	0.73
KMS11_HAEMATOPOIETIC_AND_LYMPHOID_TISSUE	0.497

Test System	AUC of viability dose-response curve
CAL78_BONE	0.486
OCILY132_HAEMATOPOIETIC_AND_LYMPHOID_TISSUE	1
NCIH520_LUNG	0.861
CBAGPN_BONE	0.79
MOLT16_HAEMATOPOIETIC_AND_LYMPHOID_TISSUE	0.445
KNS62_LUNG	0.953
NCIH1651_LUNG	1
HSC5_SKIN	0.644
SHP77_LUNG	0.641
EFO27_OVARY	1
NCIH446_LUNG	0.445
SUIT2_PANCREAS	1
KALS1_CENTRAL_NERVOUS_SYSTEM	1
JOPACA1_PANCREAS	1
HEC6_ENDOMETRIUM	0.645
SUDHL8_HAEMATOPOIETIC_AND_LYMPHOID_TISSUE	0.726
U266B1_HAEMATOPOIETIC_AND_LYMPHOID_TISSUE	0.784
KYO1_HAEMATOPOIETIC_AND_LYMPHOID_TISSUE	0.628
TC32_BONE	0.859
SNU119_OVARY	1
SNU1105_CENTRAL_NERVOUS_SYSTEM	0.577
9505BIK_PANCREAS	1
